pIC50: −log10 of the molar value. Like-named read-outs stand apart in the source and are kept apart here. Marks after values point to notes of the source that are not given here. Where a SMILES comes first, the peptide text is derived from it.
What was measured:
Assay type in all cases: binding
[1] = target: cholera toxin B subunit (CTB); ligand GM1 (Vibrio cholerae serotype O1, UniProt P01556)
[2] = target: cholera toxin B subunit (CTB); ligand LOSGM1 (Vibrio cholerae serotype O1, UniProt P01556)
Chain of cholera toxin B subunit (CTB); ligand LOSGM1 (P01556 22-124 limits assumed): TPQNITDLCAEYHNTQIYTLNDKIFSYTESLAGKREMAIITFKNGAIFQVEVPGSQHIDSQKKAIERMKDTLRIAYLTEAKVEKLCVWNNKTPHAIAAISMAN

AbGM2 (GM2/AbGM2) = conditions: lot # D710-2; for Inhibition percent at IC50AbGM1-1: GM2/AbGM2: peptide at its IC50 AbGM1-1
AbGD3 (GD3/AbGD3) = conditions: peptide at its IC50 AbGM1-1; lot # R24
AbGD1a (GD1a/AbGD1a) = conditions: lot # 109H; for Inhibition percent at IC50AbGM1-1: GD1a/AbGD1a: peptide at its IC50 AbGM1-1
AbGM4 (GM4/AbGM4) = conditions: lot # GMR6; for Inhibition percent at IC50AbGM1-1: GM4/AbGM4: peptide at its IC50 AbGM1-1
[3] = target: cholera toxin B subunit (CTB); ligand GD1b (Vibrio cholerae serotype O1, UniProt P01556)
Chain of cholera toxin B subunit (CTB); ligand GD1b (P01556 22-124 limits assumed): as above

[4] = target: cholera toxin B subunit (CTB); ligand fucosyl-GM1 (F-GM1) (Vibrio cholerae serotype O1, UniProt P01556)
Chain of cholera toxin B subunit (CTB); ligand fucosyl-GM1 (F-GM1) (P01556 22-124 limits assumed): as above

AbSGPG (SGPG/AbSGPG) = conditions: lot # D710-5; for Inhibition percent at IC50AbGM1-1: SGPG/AbSGPG: peptide at its IC50 AbGM1-1
AbGD1b (GD1b/AbGD1b) = conditions: lot # D710-6; for Inhibition percent at IC50AbGM1-1: GD1b/AbGD1b: peptide at its IC50 AbGM1-1
AbF-GM1 (F-GM1/AbF-GM1) = conditions: lot # G351; for Inhibition percent at IC50AbGM1-1: F-GM1/AbF-GM1: peptide at its IC50 AbGM1-1
[5] = system: rabbit anti-GM1 antibodies (AbGM1); conditions: for pIC50: AbGM1-1 lot # 431A; for Inhibition percent at IC50AbGM1-1: GM1/AbGM1-1 / Inhibition percent at IC50 AbGM1-1: AbGM1-3 / Inhibition percent at IC50 AbGM1-1: AbeGM1-4 / Inhibition percent at IC50 AbGM1-1: AbGM1-5 / Inhibition percent at IC50 AbGM1-1: AbGM1-1 / Inhibition percent at IC50 AbGM1-1: AbGM1-2: peptide at its IC50 AbGM1-1; for Inhibition percent at IC50 AbGM1-1: AbGM1-3: antibody lot # 101J; for Inhibition percent at IC50 AbGM1-1: AbeGM1-4: antibody lot # 104H; for Inhibition percent at IC50 AbGM1-1: AbGM1-1: antibody lot # 431A, means of 4 values
[6] = target: cholera toxin B subunit (CTB); ligand Lipid AP (Vibrio cholerae serotype O1, UniProt P01556)
Chain of cholera toxin B subunit (CTB); ligand Lipid AP (P01556 22-124 limits assumed): as above

[7] = antibody lot # 105T, dilution 1:500
[8] = antibody lot # 431B, dilution 1:500
[9] = treatment with 500 pmol/mL of PGM1-2

Chain of cholera toxin B subunit (CTB); ligand GM1 (P01556 22-124 limits assumed): as above

| Molecule | Inhibition percent at IC50 GM1: GM1 [1] [%] | Inhibition percent at IC50AbGM1-1: GM2/AbGM2 (AbGM2 (GM2/AbGM2)) [%] | Inhibition percent at IC50AbGM1-1: GD3/AbGD3 (AbGD3 (GD3/AbGD3)) [%] | Inhibition percent at IC50AbGM1-1: GD1a/AbGD1a (AbGD1a (GD1a/AbGD1a)) [%] | Inhibition percent at IC50AbGM1-1: GM4/AbGM4 (AbGM4 (GM4/AbGM4)) [%] | Inhibition percent at IC50AbGM1-1: SGPG/AbSGPG (AbSGPG (SGPG/AbSGPG)) [%] | Inhibition percent at IC50AbGM1-1: GD1b/AbGD1b (AbGD1b (GD1b/AbGD1b)) [%] | Inhibition percent at IC50AbGM1-1: F-GM1/AbF-GM1 (AbF-GM1 (F-GM1/AbF-GM1)) [%] | pIC50 ([5]; Table 4, dilution 1:500) | pIC50 ([5]; Table 5) | Inhibition percent at IC50AbGM1-1: GM1/AbGM1-1 ([5]; Table 5, lot # 431A) | Inhibition percent at IC50 AbGM1-1: AbGM1-3 ([5]; dilution 1:500) | Inhibition percent at IC50 AbGM1-1: AbeGM1-4 ([5]; dilution 1:500) | Inhibition percent at IC50 AbGM1-1: AbGM1-5 [5, 7] [%] | Inhibition percent at IC50 AbGM1-1: AbGM1-1 ([5]; dilution 1:500) | Inhibition percent at IC50 AbGM1-1: AbGM1-2 [5, 8] [%] | IC50 GM1 [1] [µM] | Inhibition percent at IC50 GM1: LOSGM1 [2] [%] | Inhibition percent at IC50 GM1: GD1b [3] [%] | Inhibition percent at IC50 GM1: F-GM1 [4] [%] | further results |
| --- | --- | --- | --- | --- | --- | --- | --- | --- | --- | --- | --- | --- | --- | --- | --- | --- | --- | --- | --- | --- | --- |
| DASKALRSSGMP [PGM1-6] | 0 | 0 | 0 | 0 | 0 | 0 | 8.9 | 23.4 | 6.53 | 6.53 | 50% | 0% | 55.1% | 18.7 | 50% | 45.1 |  |  |  |  | Inhibition percent: LOSGM1 [2]: 0^d percent; Inhibition percent: GD1b [3]: 0^d percent; Inhibition percent: F-GM1 [4]: 0^d percent; Inhibition percent: Lipid AP [6]: 0^d percent |
| CC(C)C[C@H](NC(=O)[C@H](CCCCN)NC(=O)[C@@H](NC(=O)[C@H](Cc1ccccc1)NC(=O)[C@H](Cc1c[nH]c2ccccc12)NC(=O)[C@H](C)NC(=O)[C@@H]1CCCN1C(=O)[C@@H](N)Cc1ccccc1)[C@@H](C)O)C(=O)N[C@@H](Cc1ccc(O)cc1)C(=O)N1CCC[C@H]1C(=O)N[C@@H](CCCNC(=N)N)C(=O)N[C@H](C(=O)O)[C@@H](C)O [PGM1-4, FPAWFTKLYPRT] (H-FPAWFTKLYPRT-OH) | 50 | 0 | 0 | 0 | 0 | 0 | 12.1 | 25.7 | 6.76 | 6.76 | 50% | 12.6% | 33.9% | 0 | 50% | 70.1 | 0.0774 | 51.1 | 18.9 | 62.1 | Inhibition percent at IC50 GM1: Lipid AP [6]: 0% |
| CC(C)C[C@H](NC(=O)[C@H](CC(N)=O)NC(=O)[C@@H]1CCCN1C(=O)[C@H](Cc1ccccc1)NC(=O)[C@H](Cc1c[nH]c2ccccc12)NC(=O)[C@@H](NC(=O)[C@H](CCCCN)NC(=O)[C@H](Cc1c[nH]c2ccccc12)NC(=O)[C@H](CO)NC(=O)[C@@H](N)C(C)C)[C@@H](C)O)C(=O)N[C@@H](C)C(=O)N[C@H](C(=O)O)C(C)C [PGM1-1, VSWKTWFPNLAV] (H-VSWKTWFPNLAV-OH; N-terminus and C-terminus assumed) |  | 11.2 | 0 | 0 | 0 | 0 | 32.1 | 42.1 | 6.56 | 6.56 | 50^b percent | 0% | 72.1% | 44.6 | 50^a percent | 27.1 | 0.038 | 50.8 | 39.9 | 45.8 | Inhibition percent at IC50 GM1: Lipid AP [6]: 0% |
| CSCC[C@H](NC(=O)[C@H](CO)NC(=O)[C@@H]1CCCN1C(=O)[C@H](Cc1ccccc1)NC(=O)[C@H](Cc1c[nH]c2ccccc12)NC(=O)[C@H](CCCCN)NC(=O)[C@H](Cc1c[nH]cn1)NC(=O)[C@H](Cc1ccccc1)NC(=O)[C@@H]1CCCN1C(=O)[C@H](CO)NC(=O)[C@@H](N)Cc1ccc(O)cc1)C(=O)N[C@@H](Cc1c[nH]cn1)C(=O)O [PGM1-2, YSPFHKWFPSMH] (H-YSPFHKWFPSMH-OH; N-terminus and C-terminus assumed) | 50 |  |  |  |  |  |  |  |  |  |  | 65.7^a percent | 15.1^a percent |  | 0^a percent |  | 0.0461 | 47.9 | 21.9 | 52.1 | Inhibition percent: GM2/AbGM2 (AbGM2 (GM2/AbGM2); [9]): 0^b percent; Inhibition percent: GD1a/AbGD1a (AbGD1a (GD1a/AbGD1a); [9]): 0^b percent; Inhibition percent: GM4/AbGM4 (AbGM4 (GM4/AbGM4); [9]): 0^b percent; Inhibition percent: SGPG/AbSGPG (AbSGPG (SGPG/AbSGPG); [9]): 0^b percent; Inhibition percent: GD1b/AbGD1b (AbGD1b (GD1b/AbGD1b); [9]): 23.6^b percent; Inhibition percent: F-GM1/AbF-GM1 (AbF-GM1 (F-GM1/AbF-GM1); [9]): 0^b percent; Inhibition percent: GM1/AbGM1-1 ([5]; Table 5, treatment with 500 pmol/mL of PGM1-2, lot # 431A): 0^b percent; Inhibition percent: AbGM1-5 ([5]; treatment with 500 pmol/mL of PGM1-2, antibody lot # 105T, dilution 1:500): 0^b percent; Inhibition percent: AbGM1-2 ([5]; treatment with 500 pmol/mL of PGM1-2, antibody lot # 431B, dilution 1:500): 32.1^b percent; Inhibition percent at IC50 GM1: Lipid AP [6]: 0% |
| CC[C@H](C)[C@H](N)C(=O)N1CCC[C@H]1C(=O)N[C@@H](CCC(N)=O)C(=O)N[C@H](C(=O)N[C@@H](Cc1c[nH]c2ccccc12)C(=O)N[C@@H](CCCNC(=N)N)C(=O)N[C@@H](CC(=O)O)C(=O)N[C@@H](Cc1c[nH]c2ccccc12)C(=O)N[C@@H](Cc1ccccc1)C(=O)N[C@@H](CCCCN)C(=O)N[C@@H](CC(C)C)C(=O)N1CCC[C@H]1C(=O)O)C(C)C [PGM1-3, IPQVWRDWFKLP] (H-IPQVWRDWFKLP-OH) | 50 | 0 | 0 | 0 | 0 | 0 | 0 | 0 | 7.12 | 7.12 | 50% | 42.5% | 30.3% | 59.1 | 50% | 62.1 | 0.0096 | 52.1 | 37.9 | 43.9 | Inhibition percent at IC50 GM1: Lipid AP [6]: 0% |

Source: patent publication US8877161B2 (priority 2011, dated 2014)
